The values below come from patent US10450613B2, “EGFR/NEDD9/TGF-β interactome and methods of use thereof for the identification of agents having efficacy in the treatment of hyperproliferative disorders” (Fox Chase Cancer Center, priority 2007, dated 2019).

Assay [1] has as its system cancer cells. Description: Drug synergy testing (Chou-Talalay CI), cell line not stated (FIG. 17B). The format is cell-based. As for the experimental part:
(§1) The coefficient of interaction (CI) between pharmacological inhibitors was established by the Chou-Talalay method (Chou et al., (1984) Adv Enzyme Regul 22:27). The software package CalcuSyn (BioSoft, UK) was used to automate calculations. Briefly, for each drug tested, an IC50 curve was established in each cell line, and used to select combination doses of drugs for subsequent synergy tests. 3500 cells were plated per well in 96-well plates. After 24 hours, cells were treated with serial dilutions of individual inhibitors, or combinations of two inhibitors maintained at a constant molar ratio. After 72 hours incubation, cell viability was measured using either CellTiter Blue (Promega, USA) or a WST1 assay (Roche Applied Science, Indianapolis, Ind.). The CI values for each dose and corresponding cytotoxicity were expressed as the fraction affected (Fa) and were calculated using CalcuSyn computer software and presented as Fa-CI plots. CI values <1 indicate synergy, and <0.5 strong synergy, between the two agents in producing cytotoxic effect.

In assay [2] the test system is HCT116 cells. The assay can be described thus: Drug synergy testing (Chou-Talalay CI), viability. It counts as cell-based, human. The method, then:
as §1

Assay [3] concerns A431 cells. The assay can be described thus: Drug synergy testing (Chou-Talalay CI), viability. It counts as cell-based, human. The conditions noted are these: 72 hours, CI <1 synergy, <0.5 strong synergy. As for the experimental part: as §1
In assay [4] the test system is EGFR, ERK1/2 and AKT phosphorylation. The assay can be described thus: Western analysis of EGFR pathway after inhibitor treatment and EGF stimulation. It counts as cell-based, human.
Assay [5] deals with A431 cells. The assay can be described thus: Phosphoproteomic analysis, Proteome Profiler array of 46 signaling proteins. The format is cell-based, human. As for the experimental part: For phosphoproteomic analysis, we used the Proteome Profiler™ array (R&D Systems, Minneapolis, Minn., USA) according to the manufacturer's protocol. In brief, A431 cells were grown for 24 hours in DMEM supplemented with L-glutamine and 1% FBS to 70% confluency. Cells then were either serum starved overnight or remained in the same media. Serum starved and cells incubated in 1% serum were either left untreated or incubated with IC30 concentrations of inhibitors for 3 hours. […] Serum-starved cells were subsequently stimulated with recombinant EGF (Sigma-Aldrich, USA) at 15 ng/mL for 15 minutes before lysis. For a subset of phospho-proteins, phosphorylation status was confirmed by Western blot. Quantification was done using ImageJ software.

Assay [6] has as its system HCT116 cells. The assay can be described thus: Apoptosis after drug combination treatment. It counts as cell-based, human. The note with it: HCT116, 72 hours (FIG. 17C).
The mark [7] stands for this setting: PHA-680632 alone, transient EGF stimulation.
Setting [8] is: A431, serum starved, EGF-stimulated (FIG. 19A).

Consider `CCc1cccc(CC)c1NC(=O)N1Cc2n[nH]c(NC(=O)c3ccc(N4CCN(C)CC4)cc3)c2C1` [PHA-680632], for which, in assay [1], the “Synergy with cetuximab (Chou-Talalay CI)” value is listed as “synergized”. Further, the “Cell viability, combination with erlotinib” value in assay [2] (HCT116 (FIG. 17D)) is listed as “Dose-dependent inhibition”. In assay [2] (HCT116, 72 hours, CI <1 synergy, <0.5 strong synergy), the “Synergy with erlotinib in reducing viability (Chou-Talalay CI)” value is given as “synergized strongly”. Also, the “Synergy with erlotinib in reducing viability (Chou-Talalay CI)” value in assay [3] is given as “synergized strongly”. The “S473-AKT phosphorylation, combination with erlotinib” value in assay [4] (3 hrs inhibitors then EGF, vs either agent alone (FIGS. 17H, 18; HCT116)) is “very significantly reduced”. In addition, in assay [4] (setting [7]), the “EGFR expression, autophosphorylation, and activation” value was “did not inhibit”; the “ERK1/2 or AKT phosphorylation” value was “little effect”. The “Phosphorylation of 46 signaling proteins, combination of erlotinib and PHA-680632” value in assay [5] (A431, 1% serum steady state, erlotinib 0.5 μM plus PHA 0.1 μM (FIG. 19B)) is “significant reduction in activity of STAT3, and a group of Src kinases”. Also, in assay [5] (setting [8]), the “Phosphorylation of 46 signaling proteins, combination of erlotinib and PHA-680632” value is recorded as “specific inhibition of a subset of proteins”; the “Phosphorylation of 46 signaling proteins, single agent” value was “little effect”. For the same compound, the “Frequency of apoptosis, combination with erlotinib” value in assay [6] was “increases apoptosis”.
